Assay results reported in patent US20050245497A1, “Treatment of ophthalmic conditions” (priority 2004, published 2005).

Columns and labels:
VEGF receptor Flt-1 = test: FACS analysis of Flt-1 expression in choroidal endothelial cells; format: cell-based
Description: (§1) To show the capacity of a mineralocorticoid, specifically fludrocortisone, to down-regulate receptors involved in biochemical pathways associated with oedema and exudative retinopathies, an assay was conducted looking at the activity of VEGF receptors Flk-1 and Flt-1 in choroidal endothelial cells. Flk-1 is known to be involved in cell proliferation whilst Flt-1 is involved in cell permeability.
(§2) The expression of Flk-1 and Flt-1 was measured, using fluorescence activated cell sorting (FACS) analysis, in untreated cells, cells treated with phorbolmyristate acetate (PMA), cells treated with PMA and then with the glucocorticoid triamcinolone acetonide (TA) and cells treated with PMA and then with the mineralocorticoid fludrocortisone. PMA is a model for pro-inflammatory cytokines and TA is known to […] the glucocorticoid receptor
(§3) The expression of Flk-1 and Flt-1 was also investigated in untreated choroidal endothelial cells, choroidal endothelial cells treated with Tumour Necrosis Factor-α (TNF-α) and choroidal endothelial cells treated with the mineralocorticoid fludrocortisone. TNF-α is a pro-inflammatory cytokine.

VEGF receptor Flk-1 = test: FACS analysis of Flk-1 expression in choroidal endothelial cells; format: cell-based; settings: Example 1, FIG. 1; choroidal endothelial cells treated with PMA, compared to control cells
Description: as §1, §2, §3

[1] = tested on: bacterial endotoxin induced exudative response; test: Bacterial endotoxin induced exudative response in rabbits, anterior chamber fluorophotometry of FITC-dextran; format: in vivo, New Zealand albino rabbits; settings: topical 4 mg/ml; for Anterior Chamber Fluorophotometer Results, Mean: Mean of 5 rabbits; for Anterior Chamber Fluorophotometer Results, Mean / Anterior Chamber Fluorophotometer Results: treated right eye, FITC-dextran fluorescence 90 minutes after endotoxin; for Anterior Chamber Fluorophotometer Results: 50 μL drop at 0, 1, 2 and 3 hours; for reduction in the exudative response / exudative response (result in words): treated eye versus saline control eye; for reduction in the exudative response: n=5, p<0.03 (Wilcoxon signed rank test); for exudative response (result in words): n=5
Description: Thirty New Zealand albino rabbits weighing between 2.5 and 3.0 kg were used for this study. The rabbits were treated in accordance with the guidelines of the Association for Research in Vision and Ophthalmology (ARVO). One eye of each animal was used for experimental purposes, the other serving as a control eye. Slit lamp and indirect funduscopic examination was performed on all eyes before and after euthanasia.
The rabbits were divided into six groups. Group 1 (n=5) received topical 4 mg/ml deoxycortisone acetate (Spectrum Chemical Corp). Group 2 (n=5) received topical 4 mg/ml 11 -deoxycorticosterone (Spectrum Chemical Corp). Group 3 (n=5) received topical 4 mg/ml 11-desoxycortisone (Spectrum Chemical Corp). Group 4 (n=5) received topical 4 mg/ml aldosterone (Farmabios, Italy). Group 5 (n=5) received topical 4 mg/ml deoxycorticosterone (Spectrum Chemical Corp). Group 6 (n=5) received topical fludrocortisone acetate (Farmabios, Italy).
The rabbits were anaesthetised with 1 ml of a mixture of ketamine hydrochloride (35 mg/kg, intramuscular) and xylazine hydrochloride (5 mg/kg, intramuscular). In all groups, drugs were applied topically to the right eye and saline was applied to the left eye four times (at time 0, 1, 2 and 3 hours). Drugs and saline were administered to the eye as a single 50 μL drop.
20 mg/ml dextran-isothiocyanate-fluorescein (FITC-dextran, Sigma) was prepared and a 20 mg/kg dose was injected into the marginal ear vein at time […].
Endotoxin (2.5 μg/kg) isolated from Salmonella typhimurium (Sigma) was injected into the same vein at the same time with the third drop occurring at time 2 hours.
The FITC-dextran concentration in the anterior chamber was determined using a prototype fluorophotometer (OcuMetrics, Mountain View, Calif.) 90 minutes after an endotoxin administration. This instrument has excitation wavelengths of approximately 410 to 490 nm, with emission wavelengths of approximately 520 to 630 nm. The fluorescence emitted by the FITC-dextran was determined in both left and right eyes.
Statistical analysis was performed, comparing the anterior chamber fluorescence measurements of the test and control eye of each animal. A paired Wilcoxon Signed Rank Test (StatXact) was used, with a one sided p-value.

TNF-α
expression of Flt-1 (VEGF receptor Flt-1; Example 2, FIG. 2, choroidal endothelial cells, compared to untreated control cells): higher levels of Flt-1

CCCCCCCCCCCCCC(=O)O[C@@H]1[C@@H](C)[C@@]2(O)[C@@H](C=C(CO)C[C@]3(O)C(=O)C(C)=C[C@@H]23)[C@@H]2C(C)(C)[C@]12OC(C)=O [PMA, phorbolmyristate acetate]
expression of Flk-1 (VEGF receptor Flk-1): increased
expression of Flt-1 (VEGF receptor Flt-1; Example 1, FIG. 1, choroidal endothelial cells treated with PMA): increased

C[C@]12CCC(=O)C=C1CC[C@@H]1[C@@H]2CC[C@@]2(C)[C@H]1CC[C@]2(O)C(=O)CO [11-DC, 17α,21-dihydroxypregn-4-ene-3,20-dione]
Anterior Chamber Fluorophotometer Results, Mean [1]: 331
Anterior Chamber Fluorophotometer Results ([1]; Rabbit 1): 696
Anterior Chamber Fluorophotometer Results ([1]; Rabbit 2): 578
Anterior Chamber Fluorophotometer Results ([1]; Rabbit 3): 141
Anterior Chamber Fluorophotometer Results ([1]; Rabbit 4): 147
Anterior Chamber Fluorophotometer Results ([1]; Rabbit 5): 92
reduction in the exudative response [1]: 37%

C[C@]12CC[C@H]3[C@@H](CCC4=CC(=O)CC[C@@]43C)[C@@H]1CC[C@@H]2C(=O)CO [11 -deoxycorticosterone]
exudative response (result in words) [1]: did not show a reduction in the exudative response

C[C@]12CCC(=O)C=C1CC[C@@H]1[C@@H]2[C@@H](O)C[C@]2(C=O)[C@@H](C(=O)CO)CC[C@@H]12 [AS, 11β-11,21-dihydroxy-3,20-dioxopregen-4-en-18-al]
Anterior Chamber Fluorophotometer Results, Mean [1]: 248
Anterior Chamber Fluorophotometer Results ([1]; Rabbit 1): 243
Anterior Chamber Fluorophotometer Results ([1]; Rabbit 2): 75
Anterior Chamber Fluorophotometer Results ([1]; Rabbit 3): 125
Anterior Chamber Fluorophotometer Results ([1]; Rabbit 4): 540
Anterior Chamber Fluorophotometer Results ([1]; Rabbit 5): 256
exudative response (result in words) [1]: very variable

CC(=O)OCC(=O)[C@@]1(O)CC[C@H]2[C@@H]3CCC4=CC(=O)CC[C@]4(C)[C@@]3(F)[C@@H](O)C[C@@]21C [FA, fludrocortisone acetate]
Anterior Chamber Fluorophotometer Results, Mean [1]: 166
Anterior Chamber Fluorophotometer Results ([1]; Rabbit 1): 27
Anterior Chamber Fluorophotometer Results ([1]; Rabbit 2): 86
Anterior Chamber Fluorophotometer Results ([1]; Rabbit 3): 261
Anterior Chamber Fluorophotometer Results ([1]; Rabbit 4): 445
Anterior Chamber Fluorophotometer Results ([1]; Rabbit 5): 10
reduction in the exudative response [1]: 34%

CC(=O)OCC(=O)[C@H]1CC[C@H]2[C@@H]3CCC4=CC(=O)CC[C@]4(C)[C@H]3CC[C@]12C [DA, 21-hydroxypregn-4-ene-3,20-dione 21 acetate]
Anterior Chamber Fluorophotometer Results, Mean [1]: 201
Anterior Chamber Fluorophotometer Results ([1]; Rabbit 1): 220
Anterior Chamber Fluorophotometer Results ([1]; Rabbit 2): 116
Anterior Chamber Fluorophotometer Results ([1]; Rabbit 3): 455
Anterior Chamber Fluorophotometer Results ([1]; Rabbit 4): 100
Anterior Chamber Fluorophotometer Results ([1]; Rabbit 5): 113
reduction in the exudative response [1]: 47%

C[C@]12CC[C@H]3[C@@H](CCC4=CC(=O)CC[C@@]43C)[C@@H]1CC[C@@H]2C(=O)CO [DS, 21-hydroxypregn-4-ene-3,20-dione]
Anterior Chamber Fluorophotometer Results, Mean [1]: 174
Anterior Chamber Fluorophotometer Results ([1]; Rabbit 1): 340
Anterior Chamber Fluorophotometer Results ([1]; Rabbit 2): 245
Anterior Chamber Fluorophotometer Results ([1]; Rabbit 3): 59
Anterior Chamber Fluorophotometer Results ([1]; Rabbit 4): 86
Anterior Chamber Fluorophotometer Results ([1]; Rabbit 5): 140
reduction in the exudative response [1]: 37%
